Test results published in ChEMBL document CHEMBL4477199, “Design and synthesis of novel bicalutamide and enzalutamide derivatives as antiproliferative agents for the treatment of prostate cancer” (Eur J Med Chem, 2016).

Columns and labels:
Androgen receptor = target: T1, Androgen receptor (Rattus norvegicus, UniProt P15207); assay: (§1) Antagonist activity at rat androgen receptor fused with DNA-binding domain of GAL4 expressed in AR-UAS-bla GripTite 293 cells assessed as inhibition of R1881-induced receptor activation preincubated for 30 mins followed by R1881 addition measured after 16 to 24 hrs by betalactamase reporter gene assay; format: cell-based
T1 sequence (P15207 whole entry): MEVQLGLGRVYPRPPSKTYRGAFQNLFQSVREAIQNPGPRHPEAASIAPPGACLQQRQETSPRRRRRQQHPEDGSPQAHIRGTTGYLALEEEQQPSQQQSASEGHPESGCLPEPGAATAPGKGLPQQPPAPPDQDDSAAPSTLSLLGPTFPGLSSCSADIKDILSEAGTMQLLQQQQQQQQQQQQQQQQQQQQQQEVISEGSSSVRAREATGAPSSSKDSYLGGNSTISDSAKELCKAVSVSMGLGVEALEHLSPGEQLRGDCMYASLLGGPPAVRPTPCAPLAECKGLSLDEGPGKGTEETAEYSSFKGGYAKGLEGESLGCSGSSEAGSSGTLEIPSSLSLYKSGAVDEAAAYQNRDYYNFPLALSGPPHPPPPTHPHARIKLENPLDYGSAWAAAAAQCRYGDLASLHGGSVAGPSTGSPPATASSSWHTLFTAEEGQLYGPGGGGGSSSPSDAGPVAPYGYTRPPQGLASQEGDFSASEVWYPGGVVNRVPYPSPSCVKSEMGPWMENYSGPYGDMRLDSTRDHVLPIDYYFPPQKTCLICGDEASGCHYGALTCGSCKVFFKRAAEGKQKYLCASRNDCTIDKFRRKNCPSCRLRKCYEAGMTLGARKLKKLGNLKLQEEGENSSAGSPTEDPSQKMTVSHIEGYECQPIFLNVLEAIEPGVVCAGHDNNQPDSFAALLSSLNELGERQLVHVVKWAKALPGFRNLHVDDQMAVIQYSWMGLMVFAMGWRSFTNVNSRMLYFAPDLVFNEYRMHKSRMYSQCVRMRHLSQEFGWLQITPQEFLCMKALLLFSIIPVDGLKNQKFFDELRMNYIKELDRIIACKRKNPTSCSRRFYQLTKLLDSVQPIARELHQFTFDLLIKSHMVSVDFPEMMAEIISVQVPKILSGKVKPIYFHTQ

[1] = target: T2, Androgen receptor (Rattus norvegicus) (UniProt P15207); assay: as §1; format: cell-based
T2 sequence (whole entry): T1 sequence (P15207 whole entry)

LNCaP [2] = assay: Antiproliferative activity against human LNCAP cells after 96 hrs by propidium iodide staining based fluorescence 2D monolayer assay; format: functional, cell-based
[3] = 33000 µM
Description: Solubility in 100% DMSO at 33 mM at -20 degC

VCaP [4] = assay: Antiproliferative activity against human VCaP cells after 96 hrs by propidium iodide staining based fluorescence 2D monolayer assay; format: functional, cell-based
CWR22R [5] = assay: Antiproliferative activity against human 22Rv1 cells after 96 hrs by propidium iodide staining based fluorescence 2D monolayer assay; format: functional, cell-based; settings: 22Rv1, 96 h
[6] = 96 h
Description: Solubility in RPMI1640 culture medium at <30 uM incubated for 4 days by microscopic analysis

DU-145 [7] = assay: Antiproliferative activity against human DU145 cells after 96 hrs by propidium iodide staining based fluorescence 2D monolayer assay; format: functional, cell-based; settings: DU-145, 96 h
[8] = Apparent permeability from apical to basolateral side in human Caco2 cells at 10 uM incubated for 120 mins by LC-MS/MS analysis; settings: Caco-2
[9] = Efflux ratio of apparent permeability from basolateral to apical side over apical to basolateral side in human Caco2 cells at 10 uM incubated for 120 mins by LC-MS/MS analysis; settings: Caco-2
[10] = Apparent permeability from basolateral to apical side in human Caco2 cells at 10 uM incubated for 120 mins by LC-MS/MS analysis; settings: Caco-2
LNCaP [11] = assay: Antiproliferative activity against human LNCAP cells assessed as relative inhibition after 96 hrs by propidium iodide staining based fluorescence 2D monolayer assay; format: functional, cell-based
VCaP [12] = assay: Antiproliferative activity against human VCaP cells assessed as relative inhibition after 96 hrs by propidium iodide staining based fluorescence 2D monolayer assay; format: functional, cell-based
DU-145 [13] = assay: Antiproliferative activity against human DU145 cells assessed as relative inhibition after 96 hrs by propidium iodide staining based fluorescence 2D monolayer assay; format: functional, cell-based; settings: DU-145, 96 h
CWR22R [14] = assay: Antiproliferative activity against human 22Rv1 cells assessed as relative inhibition after 96 hrs by propidium iodide staining based fluorescence 2D monolayer assay; format: functional, cell-based; settings: 22Rv1, 96 h

Compound	IC50 (Androgen receptor) [µM]	inhibition [1]	IC50 (LNCaP [2]) [µM]	solubility [3]	IC50 (VCaP [4]) [µM]	IC50 (CWR22R [5]) [µM]	solubility [6]	IC50 (DU-145 [7]) [µM]	further results
CC(O)(COc1ccc(OC(F)(F)F)cc1)C(=O)Nc1ccc([N+](=O)[O-])c(C(F)(F)F)c1 (stereo unspecified)	0.625	Dose-dependent effect	17.7	Soluble	19.6	7.53	Soluble	10.4	–
CC(C)NCC(O)COc1cccc2ccccc12 (stereo unspecified) [PROPRANOLOL]	–	–	–	–	–	–	–	–	Papp A→B at 2 h, 10 µM [8]: 40.3 ×10⁻⁶ cm/s; efflux ratio at 2 h, 10 µM [9]: 1.03; Papp B→A at 2 h, 10 µM [10]: 41.6 ×10⁻⁶ cm/s
CC(O)(COc1ccc(C#N)cc1C(F)(F)F)C(=O)Nc1ccc(C#N)cc1C(F)(F)F (stereo unspecified)	0.736	Dose-dependent effect	9.39	Soluble	17.7	18.4	Soluble	27.5	–
CC(O)(COc1cccc(OC(F)(F)F)c1)C(=O)Nc1ccc([N+](=O)[O-])c(C(F)(F)F)c1 (stereo unspecified)	0.407	Dose-dependent effect	9.95	Soluble	9.6	9.31	Soluble	13.1	–
CC1(C)C(=O)N(c2cccc(C(F)(F)F)c2)C(=O)N1c1cccc(C(F)(F)F)c1	0.123	Dose-dependent effect	5.61	Soluble	75.7	60.7	Soluble	100	–
CC(O)(CSc1ccccc1OC(F)(F)F)C(=O)Nc1ccc([N+](=O)[O-])cc1C(F)(F)F (stereo unspecified)	–	–	3.31	Soluble	5.27	4.64	Soluble	6.57 to 6.58	IC50 (LNCaP [11]): 3.28 µM; IC70 (LNCaP [11]): 3.55 µM; IC70 (LNCaP [2]): 3.61 µM; IC50 (VCaP [12]): 4.66 µM; IC70 (VCaP [12]): 9.39 µM; IC50 (DU-145 [13]): 6.16 µM; IC70 (DU-145 [13]): 7.59 µM; IC50 (CWR22R [14]): 4.47 µM; IC70 (CWR22R [14]): 5.88 µM; IC70 (VCaP [4]): 13.8 µM; IC70 (CWR22R [5]): 6.31 µM; IC70 (DU-145 [7]): 8.16 µM
CC(O)(CS(=O)(=O)c1ccc(F)cc1)C(=O)Nc1ccc(C#N)c(C(F)(F)F)c1 (stereo unspecified) [BICALUTAMIDE]	–	–	45.3	–	68.4	49.6	–	49.2	IC50 (LNCaP [11]): 47.3 µM; IC70 (LNCaP [11]): 60.9 µM; IC70 (LNCaP [2]): 59.1 µM; IC50 (VCaP [12]): 64.7 µM; IC70 (VCaP [12]): 97.3 µM; IC50 (DU-145 [13]): 46 µM; IC70 (DU-145 [13]): 58.3 µM; IC50 (CWR22R [14]): 48.5 µM; IC70 (CWR22R [14]): 64.1 µM; IC70 (VCaP [4]): > 100 µM; IC70 (CWR22R [5]): 65.1 µM; IC70 (DU-145 [7]): 61.3 µM
CC(O)(CS(=O)(=O)c1ccc(OC(F)(F)F)cc1)C(=O)Nc1ccc([N+](=O)[O-])cc1C(F)(F)F (stereo unspecified)	–	–	≥ 100	Soluble	≥ 100	≥ 100	Soluble	≥ 100	IC50 (LNCaP [11]): > 100 µM; IC70 (LNCaP [11]): > 100 µM; IC70 (LNCaP [2]): > 100 µM; IC50 (VCaP [12]): > 100 µM; IC70 (VCaP [12]): > 100 µM; IC50 (DU-145 [13]): > 100 µM; IC70 (DU-145 [13]): > 100 µM; IC50 (CWR22R [14]): > 100 µM; IC70 (CWR22R [14]): > 100 µM; IC70 (VCaP [4]): > 100 µM; IC70 (CWR22R [5]): > 100 µM; IC70 (DU-145 [7]): > 100 µM
CC(O)(COc1ccccc1OC(F)(F)F)C(=O)Nc1ccc([N+](=O)[O-])c(C(F)(F)F)c1 (stereo unspecified)	0.198	Dose-dependent effect	7.04	Soluble	9.61	6.6	Soluble	9.88	–
CC(O)(COc1ccccc1C(F)(F)F)C(=O)Nc1ccc([N+](=O)[O-])c(C(F)(F)F)c1 (stereo unspecified)	0.183	Dose-dependent effect	22.6	Soluble	27.2	20.2	Soluble	35.2	–
CC(O)(CSc1ccccc1C(F)(F)F)C(=O)Nc1ccc([N+](=O)[O-])cc1C(F)(F)F (stereo unspecified)	0.332	Dose-dependent effect	11.7	Soluble	12.8	12	Soluble	17.5	–
